Results from PubChem BioAssay AID1845208 (Molecular Pharmacology Branch, DTP, NCI, 2023).

Test system: NCI-H196 SCLC complex tumor spheroid viability
Assay: Anticancer human tumor NCI-H196 cell line growth inhibition;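 also: spheroids exposed to compounds for 7 days before readout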;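 as to viability, T/C: 100% = DMSO vehicle control wells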
Details: for IC50: curve of first compound; for viability, T/C: stronger effect = lower value
Procedure, shortened: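 Single agents and combinations were tested on spheroids built from tumor cells plus HUVEC and hMSC, at half-log dilutions starting at or near clinical Cmax, else 10 microM; final DMSO 0.25% (v/v).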

[1] = second compound 30 pM, first compound 0.0949 µM
[2] = second compound 30 pM, first compound 0.3 µM
[3] = second compound 30 pM, first compound 0.949 µM
[4] = second compound 30 pM, first compound 3 µM
[5] = second compound 94.9 pM, first compound 0.0949 µM
[6] = second compound 94.9 pM, first compound 0.3 µM
[7] = second compound 94.9 pM, first compound 0.949 µM
[8] = second compound 94.9 pM, first compound 3 µM
[9] = second compound 0.0003 µM, first compound 0.0949 µM
[10] = second compound 0.0003 µM, first compound 0.3 µM
[11] = second compound 0.0003 µM, first compound 0.949 µM
[12] = second compound 0.0003 µM, first compound 3 µM
[13] = second compound 0.000949 µM, first compound 0.0949 µM
[14] = second compound 0.000949 µM, first compound 0.3 µM
[15] = second compound 0.000949 µM, first compound 0.949 µM
[16] = second compound 0.000949 µM, first compound 3 µM
[17] = second compound 0.003 µM, first compound 0.0949 µM
[18] = second compound 0.003 µM, first compound 0.3 µM
[19] = second compound 0.003 µM, first compound 0.949 µM
[20] = second compound 0.003 µM, first compound 3 µM

In the case of `CC(C)n1c(=O)n(C)c2cnc3cc(F)c(-c4ccc(OCCCN5CCCCC5)nc4)cc3c21` + CC[C@@]1(O)C(=O)OCc2c1cc1n(c2=O)Cc2cc3c(CN(C)C)c(O)ccc3nc2-1, the IC50 (second compound 0.003 µM) is reported as greater than 10 µM, the IC50 (second compound 0.00949 µM) is reported as greater than 10 µM and the IC50 (second compound 0.03 µM) is reported as greater than 10 µM. It also gave an IC50 (second compound 0.0949 µM) greater than 10 µM, an IC50 (second compound 0.3 µM) greater than 10 µM and a viability, T/C (second compound 0.003 µM, first compound 0.0316 µM) of 102%. For the same molecule, the viability, T/C (second compound 0.003 µM, first compound 0.1 µM) was 106%, the viability, T/C (second compound 0.003 µM, first compound 0.316 µM) was 105% and the viability, T/C (second compound 0.003 µM, first compound 1 µM) was 107%. The viability, T/C (second compound 0.003 µM, first compound 3.16 µM) was 110%, the viability, T/C (second compound 0.003 µM, first compound 10 µM) was 113% and the viability, T/C (second compound 0.00949 µM, first compound 0.0316 µM) was 105%. For the same molecule, the viability, T/C (second compound 0.00949 µM, first compound 0.1 µM) was 107%, the viability, T/C (second compound 0.00949 µM, first compound 0.316 µM) was 109% and the viability, T/C (second compound 0.00949 µM, first compound 1 µM) was 112%. For the same molecule, the viability, T/C (second compound 0.00949 µM, first compound 3.16 µM) was 110%, the viability, T/C (second compound 0.00949 µM, first compound 10 µM) was 103% and the viability, T/C (second compound 0.03 µM, first compound 0.0316 µM) was 102%. The viability, T/C (second compound 0.03 µM, first compound 0.1 µM) was 102%, the viability, T/C (second compound 0.03 µM, first compound 0.316 µM) was 104% and the viability, T/C (second compound 0.03 µM, first compound 1 µM) was 101%. For the same molecule, the viability, T/C (second compound 0.03 µM, first compound 3.16 µM) was 95.9%, the viability, T/C (second compound 0.03 µM, first compound 10 µM) was 87.9% and the viability, T/C (second compound 0.0949 µM, first compound 0.0316 µM) was 116%. For the same molecule, the viability, T/C (second compound 0.0949 µM, first compound 0.1 µM) was 113%, the viability, T/C (second compound 0.0949 µM, first compound 0.316 µM) was 104% and the viability, T/C (second compound 0.0949 µM, first compound 1 µM) was 86.5%. The viability, T/C (second compound 0.0949 µM, first compound 3.16 µM) was 74.9%, the viability, T/C (second compound 0.0949 µM, first compound 10 µM) was 71.9% and the viability, T/C (second compound 0.3 µM, first compound 0.0316 µM) was 110%. For the same molecule, the viability, T/C (second compound 0.3 µM, first compound 0.1 µM) was 107%, the viability, T/C (second compound 0.3 µM, first compound 0.316 µM) was 108% and the viability, T/C (second compound 0.3 µM, first compound 1 µM) was 88.1%. For the same molecule, the viability, T/C (second compound 0.3 µM, first compound 3.16 µM) was 78.5% and the viability, T/C (second compound 0.3 µM, first compound 10 µM) was 71.4%.

`Cn1ncnc1[C@H]1c2n[nH]c(=O)c3cc(F)cc(c23)N[C@@H]1c1ccc(F)cc1` + COc1cc2c(cc1O)CCNC21CSC2c3c(OC(C)=O)c(C)c4c(c3C(COC1=O)N1C(O)C3Cc5cc(C)c(OC)c(O)c5C(C21)N3C)OCO4 was tested, and the IC50 (second compound 30 pM) was greater than 3 µM, the IC50 (second compound 94.9 pM) was greater than 3 µM and the IC50 (second compound 0.0003 µM) was greater than 3 µM. For the same molecule, the IC50 (second compound 0.000949 µM) was greater than 3 µM, the IC50 (second compound 0.003 µM) was less than 0.00949 µM and the viability, T/C (second compound 30 pM, first compound 0.00949 µM) was 100%. It also gave a viability, T/C (second compound 30 pM, first compound 0.03 µM) of 99.3%, a viability, T/C [1] of 98.6% and a viability, T/C [2] of 97%. It also gave a viability, T/C [3] of 94.6%, a viability, T/C [4] of 92.4% and a viability, T/C (second compound 94.9 pM, first compound 0.00949 µM) of 99.3%. For the same molecule, the viability, T/C (second compound 94.9 pM, first compound 0.03 µM) was 99.3%, the viability, T/C [5] was 98.8% and the viability, T/C [6] was 98.6%. The viability, T/C [7] was 92.7%, the viability, T/C [8] was 99% and the viability, T/C (second compound 0.0003 µM, first compound 0.00949 µM) was 102%. It also gave a viability, T/C (second compound 0.0003 µM, first compound 0.03 µM) of 97.5%, a viability, T/C [9] of 101% and a viability, T/C [10] of 93.5%. For the same molecule, the viability, T/C [11] was 92.2%, the viability, T/C [12] was 87.7% and the viability, T/C (second compound 0.000949 µM, first compound 0.00949 µM) was 92.3%. The viability, T/C (second compound 0.000949 µM, first compound 0.03 µM) was 85.1%, the viability, T/C [13] was 82% and the viability, T/C [14] was 92.4%. The viability, T/C [15] was 87%, the viability, T/C [16] was 71.2% and the viability, T/C (second compound 0.003 µM, first compound 0.00949 µM) was 6.21%. The viability, T/C (second compound 0.003 µM, first compound 0.03 µM) was 7.26%, the viability, T/C [17] was 4.58% and the viability, T/C [18] was 3.69%. The viability, T/C [19] was 2.82% and the viability, T/C [20] was 1.01%.

Work on `O=C(c1cc(Cc2n[nH]c(=O)c3ccccc23)ccc1F)N1CCN(C(=O)C2CC2)CC1` + COc1cc2c(cc1O)CCNC21CSC2c3c(OC(C)=O)c(C)c4c(c3C(COC1=O)N1C(O)C3Cc5cc(C)c(OC)c(O)c5C(C21)N3C)OCO4 yielded an IC50 (second compound 30 pM) greater than 30 µM, an IC50 (second compound 94.9 pM) greater than 30 µM and an IC50 (second compound 0.0003 µM) greater than 30 µM. For the same molecule, the IC50 (second compound 0.000949 µM) was greater than 30 µM, the IC50 (second compound 0.003 µM) was less than 0.0949 µM and the viability, T/C [1] was 107%. It also gave a viability, T/C [2] of 105%, a viability, T/C [3] of 101% and a viability, T/C [4] of 98.9%. It also gave a viability, T/C (second compound 30 pM, first compound 9.49 µM) of 85.5%, a viability, T/C (second compound 30 pM, first compound 30 µM) of 67.2% and a viability, T/C [5] of 104%. The viability, T/C [6] was 102%, the viability, T/C [7] was 102% and the viability, T/C [8] was 93.7%. It also gave a viability, T/C (second compound 94.9 pM, first compound 9.49 µM) of 91.5%, a viability, T/C (second compound 94.9 pM, first compound 30 µM) of 62.7% and a viability, T/C [9] of 99.6%. The viability, T/C [10] was 105%, the viability, T/C [11] was 99.5% and the viability, T/C [12] was 92%. It also gave a viability, T/C (second compound 0.0003 µM, first compound 9.49 µM) of 84.3%, a viability, T/C (second compound 0.0003 µM, first compound 30 µM) of 66% and a viability, T/C [13] of 86.4%. For the same molecule, the viability, T/C [14] was 86.9%, the viability, T/C [15] was 80.7% and the viability, T/C [16] was 78.5%. The viability, T/C (second compound 0.000949 µM, first compound 9.49 µM) was 68.9%, the viability, T/C (second compound 0.000949 µM, first compound 30 µM) was 54.4% and the viability, T/C [17] was 3.15%. For the same molecule, the viability, T/C [18] was 6.44%, the viability, T/C [19] was 3.39% and the viability, T/C [20] was 1.87%. For the same molecule, the viability, T/C (second compound 0.003 µM, first compound 9.49 µM) was 0.89% and the viability, T/C (second compound 0.003 µM, first compound 30 µM) was 1.4%.
